Data from patent US20100080852A1, “PHAMACEUTICAL COMPOSITION COMPRISING NANOPARTICLES AND CASEIN” (priority 2007, published 2010).
In brackets after ≈: the same amount, converted by molar mass. Read-outs that look alike come from different tables or passages of the source.

Columns and labels:
[1] = Solubility of the drugs in MFD solution, PBS or water; assay type: physicochemical
[2] = Log P value of the drugs; assay type: physicochemical; conditions: octanol/water
Source text: The first property of hydrophobic drugs is that they are extremely hydrophobic. Log P, defined as the base 10 logarithm of the ratio of the drug solubility in octanol to the drug solubility in water, is a widely accepted measure of hydrophobicity. By “extremely hydrophobic” is meant that the Log P value of the drug is at least 4.0, preferably at least 4.5, and most preferably at least 5.0. Log P may be measured experimentally or calculated using methods known in the art. When using a calculated value for Log P, the highest value calculated using any generally accepted method for calculating Log P is used. Calculated Log P values are often referred to by the calculation method, such as Clog P, Alog P, and Mlog P. The Log P may also be estimated using fragmentation methods, such as Crippen's fragmentation method (27 J. Chem. Inf. Comput. Sci. 21 (1987)); Viswanadhan's fragmentation method (29 J. Chem. Inf. Comput. Sci. 163 (1989)); or Broto's fragmentation method (19 Eur. J. Med. Chem.-Chim. Theor. 71 (1984). Preferably the Log P value is calculated by using the average value estimated using Crippen's, Viswanadhan's, and Broto's fragmentation methods.

[3] = MFD solution, fassgf or other biorelevant, read-out: solubility in MFD solution

Row | solubility [1, 3] | logP ([2]; read-out: Log P value) | solubility ([1]; PBS, aqueous buffer, read-out: solubility in PBS) | SMILES | logP [2]
1 | ~40 µg/mL (≈ 105 µM) | 3.75 |  | Cc1ccc(-c2cc(C(F)(F)F)nn2-c2ccc(S(N)(=O)=O)cc2)cc1 [Drug 1, 4-[5-(4-methylphenyl)-3-(trifluoromethyl)-1H-pyrazol-1-yl]benzenesulfonamide] | 
2 |  | 10 | < 0.1 µg/mL | CCc1cc(Oc2cccc(N(Cc3cccc(OC(F)(F)C(F)F)c3)C[C@@H](O)C(F)(F)F)c2)ccc1Cl [Drug 2, (2R)-3-[[3-(4-chloro-3-ethylphenoxy)phenyl][[3-(1,1,2,2-tetrafluoroethoxy)phenyl]methyl]amino]-1,1,1-trifluoro-2-propanol] | 
3 | ~11 µg/mL (≈ 18.4 µM) |  |  | CC[C@@H]1C[C@H](N(Cc2cc(C(F)(F)F)cc(C(F)(F)F)c2)C(C)=O)c2cc(C(F)(F)F)ccc2N1C(=O)OC(C)C [Drug 3, [2R,4S] 4-[acetyl-(3,5-bis-trifluoromethyl-benzyl)-amino]-2-ethyl-6-trifluoromethyl-3,4-dihydro-2H-quinoline-1-carboxylic acid isopropyl ester] | 
4 |  |  |  | c1cc[c]([Bi]([c]2ccccc2)[c]2ccccc2)cc1 [Drug 5, triphenyl bismuth] | 6
